# According to paper PMC13095408, “DBeQ derivative targets vacuolar protein sorting 4 functions in cancer cells and suppresses tumor growth in mice” (The Journal of Pharmacology and Experimental Therapeutics, 2025):
# Biological target: T1, VPS4B (Homo sapiens, UniProt O75351)
# T1 sequence (O75351 1-444): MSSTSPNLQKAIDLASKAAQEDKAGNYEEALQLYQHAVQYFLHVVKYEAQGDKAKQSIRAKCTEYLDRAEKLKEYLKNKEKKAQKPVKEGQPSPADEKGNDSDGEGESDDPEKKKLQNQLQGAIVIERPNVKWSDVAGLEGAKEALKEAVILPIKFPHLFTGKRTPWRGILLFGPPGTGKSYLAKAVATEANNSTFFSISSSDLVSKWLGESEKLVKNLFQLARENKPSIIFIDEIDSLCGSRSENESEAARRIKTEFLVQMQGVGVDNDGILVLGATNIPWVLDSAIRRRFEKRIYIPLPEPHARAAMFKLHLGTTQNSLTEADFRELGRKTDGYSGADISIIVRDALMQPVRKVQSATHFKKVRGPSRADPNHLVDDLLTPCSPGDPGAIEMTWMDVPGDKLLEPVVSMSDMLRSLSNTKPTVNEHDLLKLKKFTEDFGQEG
# Test: VPS4B ATPase activity, EnzChek Phosphate assay
# Format: biochemical
# Set-up: His tag (pET28a vector-encoded) (N); made in house; host or cells: Escherichia coli BL21(DE3)
# Procedure, shortened: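 EnzChek phosphate release (MESG/PNP, 360 nm) with ATPases at 1 μM (diluted stock) in HEPES pH 7.4 buffers with MgCl2, CaCl2, DTT, BSA, Triton; 30 min compound preincubation at RT, started with MgATP, read 20 min at 37 °C. Activity from 5-min linear initial rate, normalized to DMSO; IC50 from Hill slope −1 fit.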
smiles,measurement,setting,value
"COc1cccc2c(NCc3ccccc3)nc(NCc3ccccc3)nc12 [Compound 4-107, N^2,N^4-dibenzyl-8-methoxyquinazoline-2,4-diamine]",IC50,0.5 μM enzyme,3.7 ± 0.1 µM
same,VPS4B ATPase (% DMSO),"remaining ATPase activity, screened at 5 μM, mean ± SD, Table 1, listed as 1",36.67 ± 1.73 % DMSO
same,VPS4B ATPase (% DMSO),"screened at 5 µM, mean ± S.D., Supplemental Table 2",36.67 ± 1.73 % DMSO
